Laboratory results taken from publication PMC6376162, “HEXIM1 Peptide Exhibits Antimicrobial Activity Against Antibiotic Resistant Bacteria Through Guidance of Cell Penetrating Peptide” (Frontiers in Microbiology, 2019).

System: bacterial translation (E. coli lysate)
Experiment: In vitro protein synthesis assay (RTS 100 E. coli HY Kit, GFP, Western blot)
Type: biochemical, Escherichia coli
Conditions: 10 μM streptomycin, RTS with 5 μg GFP mRNA, 30°C, 6 h; positive control
Procedure: The method to study the effect of peptide treatment on in vitro expression of protein was adapted from previous study ([Taniguchi et al., 2016]). RTS^TM 100 E. coli HY Kit (biotechrabbit) was used as a cell-free rapid translation system (RTS) to express green fluorescent protein (GFP) with or without peptide treatment. Streptomycin (Sigma-Aldrich), an antibiotic functioning as an inhibitor of bacterial translation, was used as a positive control. Reaction mixture was prepared as described in the product manual. For the negative control, the remaining 10 μl was topped up with nuclease-free water while for the other reactions, the 10 μl consists of 5 μg GFP mRNA and either nuclease-free water or the indicated treatment (100 μM Pen, Pen-BR, Pen-RRR, CapM2 or 10 μM Streptomycin). Reaction was incubated at 30°C for 6 h before being analyzed with Western blot for the protein level of GFP. To obtain GFP mRNA, control GFP expression vector was first linearized using ApaLI restriction enzyme (New England Biolabs) and then separated via agarose gel electrophoresis. Fragment containing the linearized GFP expression vector was retrieved using FavorPrep GEL Purification Kit (FAVORGEN Biotech Corp.) and subsequently used as the template for MEGAscript^TM T7 Transcription Kit (Thermo Fisher Scientific) to generate GFP mRNA. […]

## [H]/N=C(/N)N[C@H]1[C@H](O)[C@@H](O)[C@H](O[C@@H]2O[C@@H](C)[C@](O)(C=O)[C@H]2O[C@@H]2O[C@@H](CO)[C@H](O)[C@@H](O)[C@@H]2NC)[C@@H](N/C(N)=N\[H])[C@@H]1O [streptomycin, Streptomycin]
  synthesis of GFP protein (Western blot): significant inhibition
